According to patent US11299482B2, “Salt and crystal form of modified andrographolide compound and preparation method thereof” (HEILONGJIANG ZHENBAODAO PHARMACEUTICAL CO, LTD, priority 2017, dated 2022):

What was measured:
[1] = Study on polymorphism of the compound of Formula (II) (stirring in solvent, XRPD); format: physicochemical; conditions: stirred at 40° C. for 2 days in the dark
Experimental: The compound of Formula (II) was dissolved in a corresponding solvent and stirred at 40° C. for 2 days in the dark. The solution was then centrifuged to obtain a precipitate which was dried and subjected to XRPD detection.

[2] = test system: IL-6 release from mouse spleen cells; test: LPS-induced release of IL-6 from mouse spleen cells (CBA); format: cell-based; conditions: 24 hours, read-out: Inhibition rate, IL-6 (Th1)
Description: (§1) Evaluate the inhibitory effect of the compound on LPS-induced release of cytokines involved in the Th1 pathway such as TNF-α and IL-6 from mouse spleen cells by measuring the levels of the cytokines involved in the Th1 pathway such as TNF-α and IL-6 in the culture supernatant of mouse spleen cells. Cells: spleen cells isolated from the spleens of normal C57BL/6 mice 1) The mice were sacrificed under aseptic conditions, and the spleens were collected and ground in a filter having a pore size of 70 μm. The obtained cell suspension was collected. 6) The cells were added to a 96-well plate (100 μL/well, 1×10^5 cells/well); LPS was formulated with culture medium into a 4 μg/ml solution, and then the solution was added to the cell culture well at 50 μl per well. The compound was dissolved in DMSO to give a solution of 100 mM, and then the solution was diluted with DMSO to obtain 3 gradients, which were 30 mM, 10 mM, and 3 mM, respectively. For each gradient, 4 μl of the solution was added to 1 ml of culture medium to form a mixture with a concentration of 120 μM, 40 μM, or 12 μM, respectively. 50 μl of the mixture was added to a corresponding well to a final concentration of 30 μM, 10 μM, or 3 μM, respectively. […] Then, the supernatant was collected, and the levels of TNF-α and IL-6 therein were detected by CBA.

[3] = test system: TNF-α release from mouse spleen cells; test: LPS-induced release of TNF-α from mouse spleen cells (CBA); format: cell-based; conditions: 24 hours, read-out: Inhibition rate, TNF-α (Th1)
Description: as §1

[4] = test system: IFN-γ release from mouse spleen cells; test: Release of IFN-γ from anti-CD3 stimulated mouse spleen cells (CBA); format: cell-based; conditions: anti-CD3, 24 hours, read-out: Inhibition rate, IFN-γ (Th1)
Experimental: (§2) Evaluate the inhibitory effect of the compound on the release of cytokines involved in the Th1 pathway such as IFN-γ and IL-2 from mouse spleen cells by measuring the levels of cytokines involved in the Th1 pathway such as IFN-γ and IL-2 in the culture supernatant of mouse spleen cells. Cells: spleen cells isolated from the spleens of normal C57BL/6 mice The anti-mouse CD3 antibody diluted to 5 μg/mL with DPBS was added to a 96-well plate at 100 μL/well. The culture plate was allowed to stand at 4° C. overnight; 1) The mice were sacrificed under aseptic conditions, and the spleens were collected and ground in a filter having a pore size of 70 μm. The obtained cell suspension was collected. 2) The cells were added to the wells coated with the anti-mouse CD3 antibody at 50 μL/well, i.e. 1×10^5 cells/well; and meanwhile, the cells were added to un-coated wells in the same amount, as a negative control; The compound was dissolved in DMSO to give a solution of 100 mM, and then the solution was diluted with DMSO to obtain 3 gradients, which were 30 mM, 10 mM, and 3 mM, respectively. For each gradient, 4 μl of the solution was added to 1 ml of culture medium to form a mixture with a concentration of 120 μM, 40 μM, or 12 μM, respectively. […] Then, the supernatant was collected, and the levels of IFN-γ and IL-2 therein were detected by CBA.

[5] = test system: IL-2 release from mouse spleen cells; test: Release of IL-2 from anti-CD3 stimulated mouse spleen cells (CBA); format: cell-based; conditions: anti-CD3, 24 hours, read-out: Inhibition rate, IL-2 (Th1)
Experimental: as §2

[6] = test system: IL-13 release from mouse spleen cells; test: Release of IL-13 (Th2 pathway) from mouse spleen CD4+ T cells (CBA); format: cell-based; conditions: Th2 induction, 72 hours, read-out: Inhibition rate, IL-13 (Th2)
Experimental: Evaluate the inhibitory effect of the compound on LPS-induced release of cytokines involved in the Th2 pathway such as IL-13 from mouse spleen cells by measuring the levels of cytokines involved in the Th2 pathway such as IL-13 in the culture supernatant of mouse spleen cells. Cells: CD4+ cells isolated and sorted from the spleens of normal C57BL/6 mice The anti-mouse CD3 antibody diluted to 5 μg/mL with DPBS was added to a 96-well plate at 100 μL/well. The culture plate was allowed to stand at 4° C. overnight; 6) CD4+ T cells were isolated by using the Mouse CD4+ T Cell Isolation Kit, and the isolated cells were adjusted to a concentration of […]; 8) The isolated CD4+ T cells were added to the wells coated with the anti-CD3 antibody at 50 μL/well, i.e. 1×10^5 cells/well; and meanwhile, the CD4+ T cells were added to un-coated wells in the same amount, as a negative control; The mouse anti-IFNγ antibody and anti-IL-12 antibody were simultaneously added to the culture medium both at a concentration of 40 μg/mL, and mouse IL-4 was added thereto at a concentration of 40 ng/mL. An induction solution was prepared and added to the wells that had been plated with cells and coated with anti-CD3 antibody at 50 μL/well. […] Then, the supernatant was collected, and the level of IL-13 therein was detected by CBA.

[7] = test system: TGF-β release from mouse peritoneal macrophages; test: Release of TGF-β from mouse peritoneal macrophages (ELISA); format: cell-based; conditions: Peritoneal macrophage, 24 hours, read-out: Inhibition rate, fibrosis factor TGF-β
Experimental: Evaluate the inhibitory effect of the compound on the release of TGF-β from mouse peritoneal macrophages by measuring the level of TGF-β in the culture supernatant of mouse peritoneal macrophages. Cells: Macrophages collected by peritoneal lavage of normal Balb/c mice 7) The macrophages were added to a 48-well plate at 250 μL/well, i.e. 4×10^5 cells/well; 2) A stimulating solution containing TNFα and IL-13 both at a concentration of 80 ng/mL was prepared with serum-free medium, and added to the wells plated with cells at 125 μL/well. Three wells were left without the addition of the stimulating solution and used as a blank control; The compound was dissolved in DMSO to give a solution of 100 mM, and then the solution was diluted with DMSO to obtain 3 gradients, which were 30 mM, 10 mM, and 3 mM, respectively. For each gradient, 4 μl of the solution was added to 1 ml of culture medium to form a mixture with a concentration of 120 μM, 40 μM, or 12 μM, respectively. 125 μl of the mixture was added to a corresponding well to a final concentration of 30 μM, 10 μM, or 3 μM, respectively. Dexamethasone was added as a positive drug to a separate well containing cells at a final concentration of 100 nM. […] Then, the supernatant was collected, and the level of TGF-β therein was detected by ELISA.

[8] = test system: left unilateral pulmonary fibrosis; test: SD rat model of left unilateral pulmonary fibrosis; format: in vivo
[9] = Solid stability test of Crystal Form A under high temperature and high humidity conditions; format: physicochemical
Experimental: The vial was sealed with aluminum-foil paper which was punched to generate some small holes to ensure that the sample could fully contact with the ambient air. The vial was placed in a chamber with a constant temperature and humidity of 40° C. and 75%. Samples were placed under the above conditions and tested on day 5 and day 10. The test results were compared with the initial test results as measured on day 0.

[10] = Solid physical stability test of Crystal Form A under different temperature, humidity and light conditions; format: physicochemical; conditions: Day 10
Experimental: The vial was sealed with aluminum-foil paper which was punched to generate some small holes to ensure that the sample could fully contact with the ambient air. The 4 samples as prepared were placed under conditions of 25° C./92.5% relative humidity, 60° C., 40° C./75%, and light. The physical stability of the samples on day 10 was examined. […] On day 10, all samples were taken and returned to room temperature. The appearance change of the samples was observed, and the crystal form of the samples was examined by XRPD.

[11] = test system: IL-6 release from THP-1 cells; test: LPS-induced release of IL-6 from THP-1 cells (CBA); format: cell-based; conditions: Homo sapiens, LPS-stimulated THP-1 cells, 24 hours, read-out: Inhibition rate @10 uM (IL-6)
Experimental: Evaluate the inhibitory effect of the compound on LPS-induced release of IL-6 from THP-1 cells by measuring the level of IL-6 in the cell culture supernatant.
Cell line: THP-1 cell line
4) THP-1 cells were diluted with culture medium to 5×10^5 cells/mL and the diluted cells were added to a 96-well plate (100 μl/well, […]);
1) The compound was dissolved in DMSO to give a solution of 30 mM, and then the solution was 3-fold diluted with DMSO into 4 gradients, which were 30 mM, 10 mM, 3 mM, and 1 mM, respectively. For each gradient, 4 μl of the solution was added to 1 ml of culture medium to form a mixture with a concentration of 120 uM, 40 uM, 12 uM, or 4 uM, respectively. Then, 50 ul of the mixture was added to a well containing cells to a final concentration of 30 uM, 10 uM, 3 uM, or 1 uM, respectively. Dexamethasone was added as a positive drug to a separate well containing cells at a final concentration of 100 nM.
1 mg/ml of a LPS solution was diluted to 800 ng/ml with culture medium, and the diluted solution was added to the cell culture well at 50 ul per well.
The cell culture plate was placed in a 37° C. incubator and incubated for 24 hours. Then, the supernatant was collected, and the level of IL-6 therein was detected by CBA.

[12] = 40° C. and 75% humidity, open, day 5
[13] = 40° C. and 75% humidity, open, day 10
[14] = 25° C./92.5% relative humidity (open)
[15] = 40° C./75% relative humidity (open)
[16] = stored at −20° C. in a confined space (control sample)

With `C=C1CCC2[C@]3(C)CO[C@@H](C4CCCC4)O[C@@H]3CC[C@@]2(C)[C@@H]1CCOC1CCN(C)CC1.O=C(O)CC(O)(CC(=O)O)C(=O)O` (stereo in doubt) [compound of Formula (II)] as the molecule, how does the Crystal form ([1]; Ethanol) read?
The Crystal form was “Crystal Form A”.

And the Crystal form ([1]; Methanol)?
The Crystal form was “Crystal Form A”.

And the inhibition at 10 µM [2]?
Its inhibition at 10 µM is 48%.

What about the inhibition at 30 µM [3] of the same molecule?
Its inhibition at 30 µM is 40.3%.

And the inhibition at 10 µM [4]?
Its inhibition at 10 µM is 85.3%.

What about the inhibition at 10 µM [5] of the same molecule?
The inhibition at 10 µM was 78.2%.

What about the inhibition at 10 µM [6] of the same molecule?
Its inhibition at 10 µM is 99.9%.

What about the inhibition at 10 µM [7] of the same molecule?
The inhibition at 10 µM was 51%.

What about the “Inhibitory effect on IPF” value [8] of the same molecule?
The value was “significant inhibitory effect”.

With `C=C1CCC2[C@]3(C)CO[C@@H](C4CCCC4)O[C@@H]3CC[C@@]2(C)[C@@H]1CCOC1CCN(C)CC1.O=C(O)CC(O)(CC(=O)O)C(=O)O` (some centres unmarked) [Crystal Form A] as the molecule, how does the Appearance [9, 12] read?
The Appearance was “Off-white powder”.

And the Crystal form [9, 12]?
Its Crystal form is “Crystal Form A”.

And the “Purity (%)” value [9, 12]?
Its value is 98.37%.

And the “Total impurities (%)” value [9, 12]?
The value was 1.61%.

What about the Appearance [9, 13] of the same molecule?
The Appearance was “Off-white powder”.

And the Crystal form [9, 13]?
The Crystal form was “Crystal Form A”.

What about the “Purity (%)” value [9, 13] of the same molecule?
Its value is 98.45%.

What about the “Total impurities (%)” value [9, 13] of the same molecule?
The value was 1.55%.

What about the Appearance ([9]; day 0 (initial)) of the same molecule?
Its Appearance is “Off-white powder”.

What about the Crystal form ([9]; day 0 (initial)) of the same molecule?
The Crystal form was “Crystal Form A”.

What about the “Purity (%)” value ([9]; day 0 (initial)) of the same molecule?
Its value is 98.51%.

What about the “Total impurities (%)” value ([9]; day 0 (initial)) of the same molecule?
The value was 1.49%.

What about the Characters [10, 14] of the same molecule?
Its Characters is “Off-white powder”.

What about the Crystal form [10, 14] of the same molecule?
The Crystal form was “Crystal Form A”.

And the Characters [10, 15]?
The Characters was “Off-white powder”.

And the Crystal form [10, 15]?
Its Crystal form is “Crystal Form A”.

What about the Characters ([10]; 60° C. (open)) of the same molecule?
Its Characters is “Off-white powder”.

What about the Crystal form ([10]; 60° C. (open)) of the same molecule?
The Crystal form was “Crystal Form A”.

What about the Characters ([10]; light) of the same molecule?
The Characters was “Off-white powder”.

And the Crystal form ([10]; light)?
Its Crystal form is “Crystal Form A”.

And the Characters [10, 16]?
The Characters was “Off-white powder”.

What about the Crystal form [10, 16] of the same molecule?
Its Crystal form is “Crystal Form A”.

Which inhibition at 10 µM [11] does the source give for `C=C1CCC2[C@]3(C)CO[C@@H](C4CCCC4)O[C@@H]3CC[C@@]2(C)[C@@H]1CCOC1CCN(C)CC1` (some centres unmarked) [Compound h] here?
The inhibition at 10 µM was greater than 60%.
